Counter-ions that a name gives are not always drawn.
What was measured:
Rattus norvegicus [1] = organism: Rattus norvegicus; assay: Binding affinity against 5-HT uptake site, using [3H]citalopram as radioligand in rat cortical membrane; type: functional
Rattus norvegicus [2] = organism: Rattus norvegicus; assay: Binding affinity against NE uptake site, using [3H]nisoxetine as radioligand in rat striatal membrane; type: functional, Striatum
Rattus norvegicus [3] = organism: Rattus norvegicus; assay: Binding affinity against DA uptake site, using [125I]beta-CIT as radioligand in rat striatal membrane; type: functional, Striatum

SMILES	Ki (Rattus norvegicus [1]) [nM]	Ki (Rattus norvegicus [2]) [nM]	Ki (Rattus norvegicus [3]) [nM]
CNCC[C@H](Oc1cccc(I)c1)c1ccccc1	4	1.8	208
CNCC[C@@H](Oc1ccccc1C)c1ccccc1 [ATOMOXETINE HYDROCHLORIDE]	25.1		
CNCC[C@@H](Oc1ccc(I)cc1C)c1ccccc1	0.65	69	845
CNCC[C@H](Oc1ccc(I)c(C)c1)c1ccccc1	0.3	351	200
CNCC[C@H](Oc1ccc(I)cc1)c1ccccc1	0.8	245	
CNCC[C@@H](Oc1ccc(I)cc1)c1ccccc1	1.27	3.21	
CNCC[C@H](Oc1ccc(C)cc1I)c1ccccc1	5.73	154	410
CNCC[C@@H](Oc1ccc(I)c(C)c1)c1ccccc1	0.69	128	220
CNCC[C@H](Oc1ccc(I)cc1C)c1ccccc1	13.9	1160	636
CNCC[C@@H](Oc1ccc(C)cc1I)c1ccccc1	5.18	3.4	11300
CNCC[C@@H](Oc1ccccc1I)c1ccccc1	17.1	0.24	
CNCC[C@H](Oc1ccccc1I)c1ccccc1	13.1	9.35	
CNCC[C@@H](Oc1cccc(I)c1)c1ccccc1	14.4	1.4	486
